Experimental data as given in PubChem BioAssay AID2060486 (Molecular Pharmacology Branch, DTP, NCI, 2025).

Test system: IGROV1 complex spheroids (HUVEC, MSC), viability % test/control
Assay: Anticancer human tumor IGROV1 cell line growth inhibition [GQUAD];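 also: spheroids exposed to compounds for 7 days before readout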
Conditions: for IC50: curve of first compound; for viability, T/C: stronger effect = lower value
From the text: DNA G-quadruplex Stabilizer Agents in Combinations in Complex Spheroids
A high-throughput screen of multi-cell type tumor spheroids was designed to identify active combinations of DNA G-quadruplex stabilizer agents and targeted small molecules. Complex spheroids include a stromal component modeled by human endothelial cells (HUVEC) and fibroblasts modeled by human mesenchymal stem cells (MSCs). The concentration ranges selected for each drug and investigational agent were based upon clinically achievable concentrations if the clinical Cmax of the agent was known.
Compounds. The drugs and investigational agents: pidnarulex (CX-5461; NSC782164), APTO-253 (NSC789042), BRACO-19 (NSC847499), peposertib (NSC802822), ceralasertib (NSC780249), elimusertib (NSC800525), camonsertib (NSC841442), AZD-1390 (NSC803789), olaparib (NSC753686), talazoparib (NSC767125), ART-558 (NSC835418), sotorasib (NSC818433), MRTX-1133 (NSC836407), SN-38 (NSC673596), topotecan (NSC609699), etoposide (NSC141540), doxorubicin (NSC123127), gemcitabine (NSC613327), 5-fluorouracil (NSC19893), paclitaxel (NSC125973), vemurafenib (NSC761431), panobinostat (NSC761190), R-306465 (JNJ-16241199; NSC773264), adavosertib (NSC754352), TP-3654 (NSC805149), carboplatin (NSC241240), KSQ-4279 (NSC840948), and staurosporine (NSC755774) were obtained from the National Cancer Institute (NCI) Developmental Therapeutics Program Chemical Repository (34). The FDA-approved anticancer drug set is available from the NCI Developmental Therapeutics Program. […] The stock solutions were prepared in dimethyl sulfoxide (DMSO, Sigma-Aldrich, St. Louis, MO, cat. D2650) at 800-fold the tested concentration and stored at -70 degrees C prior to their use. All drugs and investigational agents were tested over a range starting from a high concentration at or near the clinical Cmax and decreasing in half-log increments. If the clinical Cmax for an agent had not been determined, the highest concentration tested was 10 microM.
2.3 Cell Culture. All cells were maintained in an incubator at 37 degrees C and 5% CO2 with 95% humidity. The PDC lines were cultured according to standard operating procedures established by the NCI PDMR. All PDCs were thawed and cultured in Matrigel-coated flasks prepared with a working solution of 1X Ham's F-12 nutrient mix, without supplementation (Invitrogen, cat. 11765054), 100 U/mL penicillin-streptomycin (Invitrogen, cat. 15140122), and 2.5% Matrigel (Corning Inc., cat. 354248) for the first three passages. The 857933-349-R-J2-PDC line was cultured in 6C/Colon 1B media, which includes advanced DMEM/F-12 (Thermo Fisher Scientific, cat. 12634028), 10 mM HEPES (Thermo Fisher Scientific, cat. 15630080), 1X GlutaMAX supplement (Thermo Fisher Scientific, cat. 35050061), 0.1 mg/mL primocin (InvivoGen, cat. ant-pm-2), 10% defined fetal bovine serum, heat inactivated (HyClone Laboratories Inc., cat. SH30070.03HI), 50% L-WRN conditioned media (ATCC, cat. CRL-3276), 1.25 mM N-Acetyl-L-cysteine (Sigma-Aldrich, cat. A9165), 10 mM nicotinamide (Sigma-Aldrich, cat. N0636), 1X B-27 supplement (Thermo Fisher Scientific, cat. 17504044), 1X N-2 supplement (Thermo Fisher Scientific, cat. 17502048), 10 microM Y-27632 dihydrochloride (Tocris Bioscience, cat. 1254), and 50 ng/mL human EGF recombinant protein (Thermo Fisher Scientific, cat. PHG0311). The 485176-168-R4-J1-PDC line was cultured in Panc media, which includes all 6C/Colon 1B media components plus 100 ng/mL human FGF-10 (Thermo Fisher Scientific, cat. 100-26), 500 nM SB-431542 (Selleckchem, cat. S1067), and gastrin (Tocris, cat. 3006).
[…]

Compound `COc1ccc([C@@H](O)c2cc(-c3ncnc4cc(N5CCOCC5)ccc34)c(F)cc2Cl)nn1` + CN(C)c1ccc(Nc2c3ccc(NC(=O)CCN4CCCC4)cc3nc3cc(NC(=O)CCN4CCCC4)ccc23)cc1 has an IC50 (second compound 0.0316 µM) of 1420 nM, an IC50 (second compound 0.1 µM) of 709 nM and an IC50 (second compound 0.316 µM) of 718 nM. For the same compound, the IC50 (second compound 1 µM) was 659 nM, the IC50 (second compound 3.16 µM) was 348 nM and the IC50 (second compound 10 µM) was 107 nM. For the same compound, the viability, T/C (second compound 0.0316 µM, first compound 0.0316 µM) was 89.1%, the viability, T/C (second compound 0.0316 µM, first compound 0.1 µM) was 89.1% and the viability, T/C (second compound 0.0316 µM, first compound 0.316 µM) was 94.4%. For the same compound, the viability, T/C (second compound 0.0316 µM, first compound 1 µM) was 62%, the viability, T/C (second compound 0.0316 µM, first compound 3.16 µM) was 20.7% and the viability, T/C (second compound 0.0316 µM, first compound 10 µM) was 7.56%. It also gave a viability, T/C (second compound 0.1 µM, first compound 0.0316 µM) of 88.4%, a viability, T/C (second compound 0.1 µM, first compound 0.1 µM) of 72.3% and a viability, T/C (second compound 0.1 µM, first compound 0.316 µM) of 74%. The viability, T/C (second compound 0.1 µM, first compound 1 µM) was 40.1%, the viability, T/C (second compound 0.1 µM, first compound 3.16 µM) was 14.7% and the viability, T/C (second compound 0.1 µM, first compound 10 µM) was 6.35%. For the same compound, the viability, T/C (second compound 0.316 µM, first compound 0.0316 µM) was 93.1%, the viability, T/C (second compound 0.316 µM, first compound 0.1 µM) was 82.9% and the viability, T/C (second compound 0.316 µM, first compound 0.316 µM) was 71%. The viability, T/C (second compound 0.316 µM, first compound 1 µM) was 41.8%, the viability, T/C (second compound 0.316 µM, first compound 3.16 µM) was 17.6% and the viability, T/C (second compound 0.316 µM, first compound 10 µM) was 6.18%. The viability, T/C (second compound 1 µM, first compound 0.0316 µM) was 63.1%, the viability, T/C (second compound 1 µM, first compound 0.1 µM) was 82.2% and the viability, T/C (second compound 1 µM, first compound 0.316 µM) was 74%. It also gave a viability, T/C (second compound 1 µM, first compound 1 µM) of 37.1%, a viability, T/C (second compound 1 µM, first compound 3.16 µM) of 11.4% and a viability, T/C (second compound 1 µM, first compound 10 µM) of 5.01%. The viability, T/C (second compound 3.16 µM, first compound 0.0316 µM) was 69.4%, the viability, T/C (second compound 3.16 µM, first compound 0.1 µM) was 82.5% and the viability, T/C (second compound 3.16 µM, first compound 0.316 µM) was 49.1%. It also gave a viability, T/C (second compound 3.16 µM, first compound 1 µM) of 21.6%, a viability, T/C (second compound 3.16 µM, first compound 3.16 µM) of 8.01% and a viability, T/C (second compound 3.16 µM, first compound 10 µM) of 5.13%. The viability, T/C (second compound 10 µM, first compound 0.0316 µM) was 56.6%, the viability, T/C (second compound 10 µM, first compound 0.1 µM) was 52.6% and the viability, T/C (second compound 10 µM, first compound 0.316 µM) was 30.4%. The viability, T/C (second compound 10 µM, first compound 1 µM) was 13.7%, the viability, T/C (second compound 10 µM, first compound 3.16 µM) was 5.94% and the viability, T/C (second compound 10 µM, first compound 10 µM) was 4.92%.
